Test results as given in patent US12590062B2, “PD-1/PD-L1 inhibitors” (Gilead Sciences, Inc., priority 2017, dated 2026).

Key:
PD-1/PD-L1 = PD-1/PD-L1 (Homo sapiens, UniProt Q9NZQ7); assay: PD-1/PD-L1 biochemical protein-protein interaction assay (ALPHA); assay type: binding; settings: 0.3 nM His tagged PD-L1, 2.5 nM biotinylated Fc-PD-1, 60 minutes at 25° C., read-out: IC50 PD-L1-PD-1 Alpha IC50-mono PD-L1-fcP-D1
Procedure, shortened: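 ALPHA bead proximity assay of extracellular domains: 0.3 nM His-PD-L1 with 2.5 nM biotinylated Fc-PD-1 in 25 mM Hepes pH 7.4, 150 mM NaCl, 3.4 mM EDTA, 0.005% Tween 20, 0.01% BSA, 60 min at 25 °C. Anti-His acceptor and streptavidin donor beads added; IC50 from four-parameter fit of signal loss.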

PD-1/PD-L1 interaction = target: T1, PD-1/PD-L1 interaction (Homo sapiens, UniProt Q9NZQ7); assay: PD-1/PD-L1 NFAT reporter co-culture assay; assay type: cell-based; settings: Jurkat PD-1 NFAT-luciferase cells co-cultured with aAPC-PD-L1 CHO cells, 6 hrs at 37° C.; read-out: EC50 NFAT Luciferase
T1 construct: expressed in transfected cells; host or cells: CHO cells (aAPC-PD-L1) co-cultured with Jurkat cells overexpressing PD-1 and an NFAT-luciferase reporter
T1 sequence (Q9NZQ7 19-290): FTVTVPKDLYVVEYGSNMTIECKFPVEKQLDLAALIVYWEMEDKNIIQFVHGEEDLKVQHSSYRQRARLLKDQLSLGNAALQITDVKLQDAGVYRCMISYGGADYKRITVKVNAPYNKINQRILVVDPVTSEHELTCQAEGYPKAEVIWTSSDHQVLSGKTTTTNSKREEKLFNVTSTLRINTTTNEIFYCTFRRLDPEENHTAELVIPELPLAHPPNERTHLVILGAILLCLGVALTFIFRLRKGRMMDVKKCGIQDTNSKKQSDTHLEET
Procedure, shortened: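 Luminescence (ONE-Glo) after 6 h, 37 °C co-culture reports NFAT-luciferase in PD-1 Jurkat cells, which PD-1/PD-L1 engagement suppresses. Partner cells: CHO expressing anti-CD3 and PD-L1. EC50 from four-parameter dose-response fit.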

PD-L1 = target: T2, PD-L1 (Homo sapiens, UniProt Q9NZQ7); assay: PD-L1/PD-L1 dimerization biochemical protein-protein interaction assay (ALPHA); assay type: binding; settings: compound-induced PD-L1 dimerization, head prints '1 nM' (0.5 nM His-tagged PD-L1 and 0.5 nM FLAG-tagged PD-L1), read-out: AC50 PDL1 Dimer Alpha 1 nM
T2 construct: determine if they can specifically dimerize the extracellular domains of PD-L1
T2 sequence (Q9NZQ7 19-238 limits assumed): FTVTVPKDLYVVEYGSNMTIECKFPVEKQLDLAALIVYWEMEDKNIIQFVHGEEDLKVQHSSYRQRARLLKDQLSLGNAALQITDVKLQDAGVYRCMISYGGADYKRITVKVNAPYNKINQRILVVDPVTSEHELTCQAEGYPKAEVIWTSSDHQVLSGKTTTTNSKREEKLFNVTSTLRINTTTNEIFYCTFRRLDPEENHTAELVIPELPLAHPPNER
T2 sequence (Q9NZQ7 19-238 limits assumed): as above
Procedure, shortened: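 ALPHA proximity assay of compound-induced dimerization of 0.5 nM His-tagged and 0.5 nM FLAG-tagged PD-L1 extracellular domains in Hepes pH 7.4 buffer, 2 h at 25 °C. Anti-His acceptor then anti-FLAG donor beads, 60 min each; AC50 from four-parameter fit.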

Chain of PD-1/PD-L1 (Q9NZQ7 19-238 limits assumed): as above

Row | SMILES | IC50 (PD-1/PD-L1) [nM] | EC50 (PD-1/PD-L1 interaction) [nM] | AC50 (PD-L1) [nM]
1 | N#Cc1cncc(COc2nc(O[C@H]3CCc4c(-c5cccc6c5CC[C@@H]6Oc5nc(OCc6cncc(C#N)c6)c(CNCCO)cc5Br)cccc43)c(Br)cc2CNCCO)c1 [Example 751] | 4.51 | 355 | 182
2 | N#Cc1cncc(COc2nc(O[C@H]3CCc4c(-c5cccc6c5CC[C@@H]6Oc5nc(OCc6cncc(C#N)c6)c(C6=NCCN6)cc5Br)cccc43)c(Br)cc2C2=NCCN2)c1 [Example 752] | 0.779 | 471 | 82.5
3 | Cc1c(-c2ccc(OCCNC[C@@H](O)CC(=O)O)cc2)cccc1-c1cccc2c1CC[C@@H]2Oc1nc(OCc2cccc(C#N)c2)c(CNC[C@@H](O)CC(=O)O)cc1Br [Example 755] | 0.155 | 139 | 39.2
4 | CCOC(=O)[C@@H]1CCN(Cc2cc(Cl)c(O[C@H]3CCc4c(-c5cccc(-c6ccc(CN7CC8(C7)CN(C(C)=O)C8)cc6)c5Cl)cccc43)nc2OC)C1 [Example 770] | 0.418 | 856 | 700
5 | COc1nc(O[C@H]2CCc3c(-c4cccc(-c5ccc(CN6CC7(C6)CN(C(C)=O)C7)cc5)c4Cl)cccc32)c(Cl)cc1CN1CC[C@@H](C(=O)O)C1 [Example 771] | 0.064 | 130 | 45
6 | COc1nc(O[C@H]2CCc3c(-c4cccc(-c5ccc(CNCCO)cc5)c4Cl)cccc32)c(Cl)cc1CNCCO [Example 772] | 0.552 | ≥ 50000 | 19.5
7 | COc1nc(O[C@H]2CCc3c(-c4cccc(-c5ccc(CN6CC7(CCC(=O)N7)C6)cc5)c4Cl)cccc32)c(Cl)cc1CN1CC2(CCC(=O)N2)C1 [Example 773] | 0.638 | 2100 | ≥ 10000
8 | COc1nc(O[C@H]2CCc3c(-c4cccc(-c5ccc(C6=N[C@@H](C)CN6)c(OC)n5)c4Cl)cccc32)c(Br)cc1CN1CC[C@H](O)[C@H](F)C1 [Example 774] | 1.31 | 463 | 2730
9 | COc1nc(O[C@H]2CCc3c(-c4cccc(-c5ccc(C6=NCCN6)c(OC)n5)c4Cl)cccc32)c(Br)cc1CN1CC2(C1)CN(C(C)=O)C2 [Example 775] | 0.276 | 84 | 68
10 | CCOC(=O)[C@@H]1CCCCN1Cc1cc(Br)c(O[C@H]2CCc3c(-c4cccc(-c5ccc(C6=NCCN6)c(OC)n5)c4Cl)cccc32)nc1OC [Example 776] | 8.31 | 1440 | ≥ 10000
11 | COc1cc(-c2cccc(-c3cccc4c3CC[C@@H]4Oc3ccc(CN[C@@](C)(CO)C(=O)O)c(OC)n3)c2Cl)ccc1C1=NCCN1 [Example 777] | 0.064 | 179 | 45.8
12 | COc1nc(O[C@H]2CCc3c(-c4cccc(-c5ccc(C6=N[C@H](C)CN6)c(OC)n5)c4Cl)cccc32)ccc1CN[C@@](C)(CO)C(=O)O [Example 778] | 0.113 | 212 | 259
13 | COc1nc(O[C@H]2CCc3c(-c4cccc(-c5ccc(C6=NCCN6)c(OC)n5)c4Cl)cccc32)c(Br)cc1CNC[C@@H]1CCC(=O)N1 [Example 779] | 0.353 | 68 | 113
14 | COc1cc(-c2cccc(-c3cccc4c3CC[C@@H]4Oc3nc(OC)c(CN[C@@](C)(CO)C(=O)O)cc3Br)c2Cl)ccc1C1=NCCN1 [Example 780] | 0.064 | 50 | 14.4
15 | COc1nc(O[C@H]2CCc3c(-c4cccc(-c5ccc(C6=N[C@@H](C)CN6)c(OC)n5)c4Cl)cccc32)c(Br)cc1CN[C@@](C)(CO)C(=O)O [Example 781] | 0.064 | 34 | 23.3
16 | COc1nc(O[C@H]2CCc3c(-c4cccc(-c5ccc(C6=N[C@H](C)CN6)c(OC)n5)c4Cl)cccc32)c(Br)cc1CN[C@@](C)(CO)C(=O)O [Example 782] | 0.064 | 38 | 23.1
17 | COc1nc(O[C@H]2CCc3c(-c4cccc(-c5ccc6c(c5)C[C@@H](N)C6)c4Cl)cccc32)ccc1CN[C@@](C)(CO)C(=O)O [Example 783] | 0.259 | 2990 | 823
18 | COc1nc(O[C@H]2CCc3c(-c4cccc(-c5ccc6c(c5)C[C@@H](N)C6)c4Cl)cccc32)c(Br)cc1CN[C@@](C)(CO)C(=O)O [Example 784] | 0.064 | 182 | 28.9
19 | COc1nc(O[C@H]2CCc3c(-c4cccc(-c5ccc(C6=NCCN6)c(OC)n5)c4Cl)cccc32)c(Br)cc1CN1CCCC[C@H]1C(=O)O [Example 785] | 0.064 | 66 | 16.1

More lines, in order of falling IC50 (PD-1/PD-L1), values ahead:

Row | IC50 (PD-1/PD-L1) [nM] | EC50 (PD-1/PD-L1 interaction) [nM] | AC50 (PD-L1) [nM] | SMILES
20 | 0.064 | 10 | 5.36 | COc1nc(-c2cccc(-c3cccc4c3CC[C@@H]4Oc3nc(OCc4cncc(C#N)c4)c(CN[C@@](C)(CO)C(=O)O)cc3Br)c2Cl)ccc1CNC[C@@H]1CCC(=O)N1 [Example 747]
21 | 0.064 | 24 | 10.1 | COc1nc(-c2cccc(-c3cccc4c3CC[C@@H]4Oc3nc(OCc4cncc(C#N)c4)c(CN[C@@](C)(CO)C(=O)O)cc3Br)c2C)ccc1C1=NCCN1 [Example 748]
22 | 0.064 | 77 | 16.8 | COc1nc(-c2cccc(-c3cccc4c3CC[C@@H]4Oc3nc(OCc4cncc(C#N)c4)c(CN[C@@](C)(CO)C(=O)O)cc3Cl)c2C)ccc1C1=NCCN1 [Example 749]
23 | 0.064 | 222 | 72.1 | COc1nc(-c2cccc(-c3cccc4c3CC[C@@H]4Oc3ccc(CN[C@@](C)(CO)C(=O)O)c(OCc4cncc(C#N)c4)n3)c2C)ccc1C1=NCCN1 [Example 750]
24 | 0.064 | 15 | 17.6 | COc1nc(-c2cccc(-c3cccc4c3CC[C@@H]4Oc3nc(OC)c(CN4CC(C(=O)O)C4)cc3Cl)c2Cl)ccc1CNC[C@@H]1CCC(=O)N1 [Example 757]
25 | 0.064 | 29 | 36.7 | COc1nc(-c2cccc(-c3cccc4c3CC[C@@H]4Oc3nc(OC)c(CN4CCC[C@@H](C(=O)O)C4)cc3Cl)c2Cl)ccc1CNC[C@@H]1CCC(=O)N1 [Example 758]
26 | 0.064 | 16 | 18.9 | COc1nc(-c2cccc(-c3cccc4c3CC[C@@H]4Oc3nc(OC)c(CN4CCC[C@H](C(=O)O)C4)cc3Cl)c2Cl)ccc1CNC[C@@H]1CCC(=O)N1 [Example 759]
27 | 0.064 | 63 | 44.2 | COc1nc(-c2cccc(-c3cccc4c3CC[C@@H]4Oc3nc(OC)c(CN4C[C@H](C(=O)O)[C@@H](C(C)C)C4)cc3Cl)c2Cl)ccc1CNC[C@@H]1CCC(=O)N1 [Example 760]
28 | 0.064 | 10 | 13.2 | COc1nc(-c2cccc(-c3cccc4c3CC[C@@H]4Oc3nc(OC)c(CN4CCCC(C)(C(=O)O)C4)cc3Cl)c2Cl)ccc1CNC[C@@H]1CCC(=O)N1 (stereo partly drawn) [Example 761]
29 | 0.064 | 18 | 13.6 | COc1nc(-c2cccc(-c3cccc4c3CC[C@@H]4Oc3nc(OC)c(CN4CCCC(O)(C(=O)O)C4)cc3Cl)c2Cl)ccc1CNC[C@@H]1CCC(=O)N1 (stereo partly drawn) [Example 762]
30 | 0.064 | 10 | 11.3 | COc1nc(-c2cccc(-c3cccc4c3CC[C@@H]4Oc3nc(OC)c(CN4CCC(C)(C(=O)O)C4)cc3Cl)c2Cl)ccc1CNC[C@@H]1CCC(=O)N1 (stereo partly drawn) [Example 763]
31 | 0.064 | 23 | 31.9 | COc1nc(-c2cccc(-c3cccc4c3CC[C@@H]4Oc3nc(OC)c(CN4CCC[C@H](C(=O)O)[C@@H]4C)cc3Cl)c2Cl)ccc1CNC[C@@H]1CCC(=O)N1 [Example 764]
32 | 0.064 | 11 | 13.1 | COc1nc(-c2cccc(-c3cccc4c3CC[C@@H]4Oc3nc(OC)c(CN4C[C@@H](C)[C@H](C(=O)O)C4)cc3Cl)c2Cl)ccc1CNC[C@@H]1CCC(=O)N1 [Example 765]
33 | 0.064 | 21 | 19.4 | COc1nc(-c2cccc(-c3cccc4c3CC[C@@H]4Oc3nc(OC)c(CN4CC5(C(=O)O)CCC4CC5)cc3Cl)c2Cl)ccc1CNC[C@@H]1CCC(=O)N1 [Example 766]
34 | 0.064 | 57 | 75.7 | COc1nc(O[C@H]2CCc3c(-c4cccc(-c5cnc(CN6CC7(C6)CN(C(C)=O)C7)c(OC)n5)c4Cl)cccc32)c(Cl)cc1CN1CC[C@@H](C(=O)O)C1 [Example 767]
35 | 0.064 | 33 | 47.4 | COc1nc(O[C@H]2CCc3c(-c4cccc(-c5cnc(CNC[C@@H]6CCC(=O)N6)c(OC)n5)c4Cl)cccc32)c(Cl)cc1CN1CC[C@@H](C(=O)O)C1 [Example 768]
36 | 0.064 | 25 | 28.1 | COc1nc(-c2cccc(-c3cccc4c3CC[C@@H]4Oc3nc(OC)c(CN4CC[C@@H](C(=O)O)C4)cc3Cl)c2Cl)ccc1CNC[C@@H]1CCC(=O)N1 [Example 769]
